2 compounds from US7332631B2, “Fc receptor modulating compounds and compositions” (Trillium Therapeutics Inc., priority 2002, dated 2008) can be followed below.

The nature of data set [1]: Solubility remark in the platelet activation screen. The class given is physicochemical. The conditions noted are these: printed instead of a % inhibition value.
The target in data set [2] is T1, FcγRIIa (Homo sapiens, UniProt P12318).
T1 construct: endogenous in cells; host or cells: washed human platelets
T1 sequence (P12318 34-317): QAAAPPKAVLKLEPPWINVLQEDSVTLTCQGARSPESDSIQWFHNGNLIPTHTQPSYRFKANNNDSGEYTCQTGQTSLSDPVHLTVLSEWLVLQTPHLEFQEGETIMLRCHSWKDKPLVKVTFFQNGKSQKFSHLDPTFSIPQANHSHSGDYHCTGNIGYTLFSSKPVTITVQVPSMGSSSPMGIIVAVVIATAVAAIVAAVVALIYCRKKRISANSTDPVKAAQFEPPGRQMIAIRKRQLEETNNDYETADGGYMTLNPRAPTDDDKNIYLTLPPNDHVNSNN
Kind of data set: FACS assay of activation of human platelets by heat aggregated IgG (HAGG), P-Selectin expression. It is filed as cell-based. The conditions noted are these: washed human platelets, HAGG as agonist; several values in a cell = repeat determinations; '(ICnn)' after a '<' bound = inhibition level at that concentration; read-out: Concentration at 50% inhibition of platelet activation by HAGG. The procedure: The compounds of Table 1 were screened in a FcγRIIa dependent platelet activation assay and/or aggregation assay where platelets are activated using heat aggregated human immunoglobulin G as an immune complex. Compounds inhibiting this process were then tested for specificity. Note that the platelets were used as the target as the only Fc receptor expressed on these cells is FcγRIIa. In addition, they are very difficult to inhibit and therefore this assists in identifying compounds with reasonable potency.
The compounds of the present invention were initially screened in a rapid FACS screening assay, measuring activation of human platelets by heat aggregated IgG. […] In addition, platelets are very sensitive to a range of stimuli and activate rapidly. Activation is measured by the appearance of the protein P-Selectin on the platelet membrane after exposure to various stimuli. The stimuli were heat aggregated with IgG and as specificity controls, collagen or thrombin.
Specifically, this assay utilises washed platelets and heat aggregated IgG (HAGG) as an immune complex (agonist) to activate and crosslink FcγRIIa. Because this is a primary screen a single concentration of small molecule inhibitor is added to the platelets (final concentration of 500 μg/ml) and allowed to incubate for 30 minutes. Heat Aggregated IgG (HAGG) (40 μg/ml) is then added to the platelets and allowed to incubate for 30 minutes. Paraformaldehyde is added to the platelets for 30 minutes prior to washing. Anti-P-Selectin (FITC conjugated) and Anti-CD41 (PE conjugated) are added and the platelets are then screened by FACS to detect expression of P-Selectin, a marker of platelet activation and CD41, which is expressed by all viable platelets.
In summary, for each compound tested the activity was measured as a function of inhibition of platelet activation and/or platelet aggregation as detailed above. Specificity is defined as specific inhibition of immune complex induced platelet activation but with no effect on arachidonic acid induced activation (and where tested no effect on thrombin, collagen or ADP induced activation).
The compounds were titrated and evaluated for capacity to prevent aggregated IgG induction of p-selectin expression as a measure of activation.

Structures are written as SMILES. Where “and” joins values, the source holds several entries; their conditions need not be identical. Equal entries are not always repeated. Bounds are passed on as bounds.

For the compound `O=C(O)c1cccc(/C=N/Nc2cc(Cl)cc(Cl)c2)c1` [Compound 080], the “Solubility (word printed in the % inhibition column)” value in data set [1] is reported as “Insoluble”. `COc1ccc2sc(C(=O)O)c(OC3CCCCC3)c2c1` [Compound 276, 3-Cyclohexyloxy-5-methoxy-1-benzo[b]thiophene-2-carboxylic acid] had a melting point of 176 to 177 °C. In data set [2], the IC50 is < 165 µM and 170 µM.

As a reminder, the melting point is the temperature of the solid-liquid transition.
